Assay results taken from patent US20250049678A1, “COMPOUNDS ATTACHABLE TO SKIN” (Inkbox Ink Incorporated, priority 2021, published 2025).

Experiments:
[1] = UV/visible absorbance after reacting the compound with lysine to mimic skin binding; format: physicochemical; details: for visible color after reaction with lysine / UV-light absorption after reaction with lysine: lysine conjugate, mimic of skin binding; for visible color after reaction with lysine: absorbance at wavelengths above 410 nm; for UV-light absorption after reaction with lysine: absorbance at wavelengths below 410 nm; for shift in UV absorbance peak on reaction with lysine: compound versus its lysine conjugate; for absorbance properties / color of the dye compound after binding to lysine: versus the dye compound prior to conjugation with lysine, in solution, FIG. 3D; for UV blocking activity: FIG. 6, salicylic acid as such, attached to hydrogenated genipin anchor, and bound to skin mimic
Excerpt: A hydrogenated genipin derivative (compound 1) was conjugated with lysine to obtain compound 1-lysine conjugate:
The azo-dye compound of example 5 was conjugated with lysine to obtain a conjugate:
The compound of Example 7 was conjugated with lysine to obtain the lysine conjugate:
The OL compound of example 8 was conjugated with lysine to obtain OL-lysine conjugate: […]

[2] = system: skin substrate (a porcine skin explant); experiment: Sunscreen application on skin substrate: UV-light absorption and retention after wiping, washing and scrubbing
Excerpt: When referring to protective groups hydrolysable under physiological conditions after application of the topical composition onto the skin here and elswhere in the dislcosure: Such groups are readily known to the skilled person and include, in particular acyl moieties such as optionally substituted acyl moieties comprising 1 to 30, more specifically 1 to 16, and in particular 1 to 12, carbon atoms; 0 to 12, more specifically 0 to 8, and in particular 0 to 6 oxygen atoms; 0 to 8, more specifically 0 to 6, and in particular 0 to 4 nitrogen atoms; 0 to 6, more specifically 0 to 4, and in particular 0 to 3 sulfur atoms; and 0 to 10, more specifically 0 to 8, and in particular 0 to 6 halogen atoms. Specific examples include C1-C18 acyl moieties, more specifically C1-C12 acyl moieties and in particular […]. When referring in this context to “physiological conditions” it should be understood that this in particular refers to the pH conditions encountered at the locus where the compound of formula (I) is supposed to bind to proteins in e.g. the stratum corneum and/or the epidermis of the (mammalian, in particular human) subject to be treated. […]

Row | SMILES | visible color after reaction with lysine [1] | UV-light absorption after reaction with lysine [1] | shift in UV absorbance peak on reaction with lysine [1] | further results
1 | COC(=O)C1=CN(CCCCC(N)C(=O)O)C=C2C(COC(=O)c3ccccc3O)CCC12 (stereo not drawn) | no visible color | strong UV-light absorption | – | –
2 | C=CC1=CN(CCCCC(N)C(=O)O)C=C(C(=O)OC)C1CC(=O)OCCc1ccc(O)c(O)c1 (stereo not drawn) | no visible color | strong UV-light absorption | – | –
3 | COC(=O)C1=COC(O)C2C(C)CCC12 (stereo not drawn) [Compound 1, methyl 1-hydroxy-7-methyl-1,4a,5,6,7,7a-hexahydrcyclopenta[c]pyran-4-carboxylate] | no visible color | strong UV-absorption | small shift | –
4 | COC(=O)C1=COC(O)C2C(CO)CCC12 (stereo not drawn) [Compound 2, methyl 1-hydroxy-7-(hydroxymethyl)-1,4a,5,6,7,7a-hexahydrocyclopenta[c]pyran-4-carboxylate] | no visible color | strong UV-light absorption | – | –
5 | COC(=O)C1=COC(O)C2C(COC(=O)c3ccc(/N=N/c4ccccc4)cc3)CCC12 (stereo not drawn) [Example 5, methyl (E)-1-hydroxy-7-(((4-(phenyldiazenyl)benzoyl)oxy)methyl)-1,4a,5,6,7,7a-hexahydrocyclopenta[c]pyran-4-carboxylate] | – | – | – | absorbance properties / color of the dye compound after binding to lysine [1]: does not alter absorbance properties; absorbance properties / color of the dye compound after binding to lysine ([1]; listed as azo-dye-anchor molecule): retains its original color
6 | COC(=O)C1=COC(O)C2C(COC(=O)c3ccccc3O)CCC12 (stereo not drawn) [Example 7, methyl 1-hydroxy-7-(((2-hydroxybenzoyl)oxy)methyl)-1,4a,5,6,7,7a-hexahydrocyclopenta[c]pyran-4-carboxylate] | no visible color is produced | – | small shift in UV absorbance peak | UV blocking activity [1]: retained
7 | C/C=C1/[C@H](O)OC=C(C(=O)OC)[C@H]1CC(=O)OCCc1ccc(O)c(O)c1 [OL, methyl (4s,5e,6r)-4-[2-[2-(3,4-dihydroxyphenyl)ethoxy]-2-oxoethyl]-5-ethylidene-6-hydroxy-4h-pyran-3-carboxylate] | almost no visible color | – | small shift in UV absorbance peak | –
8 | COC(=O)C1=CN(CCCCC(N)C(=O)O)C=C2C(C)CCC12 (stereo not drawn) [compound 1-lysine conjugate] | no visible color | strong UV-light absorption | – | –
9 | CCCCC(CC)COC(=O)c1ccccc1O (stereo not drawn) [octisalate] | – | – | – | UV-light absorption on the skin substrate and removability after wiping ([2]; 50 mM solutions, 2 and 4 hours after application, wiped with a wet tissue at 4 hours, UV light 254 nm, FIG. 4): easily removable from the skin; UV-light absorption / presence on the skin substrate after washing and scrubbing ([2]; 24 and 26 hours total contact time, submerged in water for 2 hours and scrubbed vigorously, UV camera with UV-B filter, FIG. 5): no longer present
10 | O=C(O)c1ccccc1O [salicylic acid, reference compound] | – | – | – | UV blocking activity [1]: UV blocking agent
